Measured values taken from US9045505B2, “Nitric oxide donors” (University of Otago, priority 2006, dated 2015).

Assays:
complex I = assay: Respiration by bovine heart mitochondrial membranes on NADH or succinate; format: biochemical; conditions: 75 μM, 5 min
Protocol: (a) Effect of MitoSNAP on mitochondrial respiration.
Mitochondrial preparations and incubations.

[1] = tested on: Langendorff-perfused mouse hearts; assay: Cardiac ischemia-reperfusion injury in Langendorff-perfused mouse hearts (ex vivo)
Protocol: FIG. 16 is a series of graphs showing the vasodilatory and tissue protective effects of MitoSNAP. (a) Dose-response curves for the effect of MitoSNAP and related compounds on blood vessel relaxation. The effects of intact or decomposed MitoSNAP and SNAP on pre-contracted rat thoracic aorta mounted in a myograph were determined Data represent means±sem. For MitoSNAP n=8 from experiments on two independent rat aorta preparations. For decomposed MitoSNAP and SNAP experiments the data (n=4) are from one aorta preparation. (b) EC50 for the effect of MitoSNAP and SNAP on blood vessel relaxation. The EC50 values were determined from experiments shown in (a) above. ***p<0.001 by Student's unpaired t-test. (c & d) MitoSNAP protects against I/R injury in Langendorff-perfused mouse hearts. Hearts from C57BL6 mice were Langendorff perfused and subjected to 25 min global normothermic ischemia followed by 1 h of reperfusion. MitoSNAP or MitoNAP (100 nM final), or vehicle carrier, was added via an infusion port above the aortic cannula during reperfusion. Hearts were then stained with 2,3,5-triphenyltetrazolium chloride (TTC) to visualize infarct. (c) Protection of heart function by MitoSNAP during I/R injury. Left ventricular contractile function was recorded throughout the I/R protocol.
FIG. 18 is a graph showing the effect of pre-ischemic administration of MitoSNAP or MitoNAP on recovery of heart function (rate pressure product) from IR injury. Experiments were carried out exactly as described in FIGS. 16c & 16d, except that MitoSNO1 or MitoNAP were infused into the heart for 20 min, followed by a 2 min wash-out period, prior to the onset of ischemia. White symbols=vehicle control, black symbols=MitoSN01, gray symbols=MitoNAP. Data are means±sem, n≧6. […]
There is considerable evidence pointing to mitochondrial damage during the reperfusion phase of cardiac ischemia-reperfusion (I/R) injury. […] Therefore we determined if MitoSNAP could decrease I/R injury in a mouse heart Langendorff model (FIGS. 16c & d). […]

[2] = Reaction with GSH and half-life in the cytosol; format: physicochemical; conditions: cytosol (estimated) with 5 mM GSH; physiological GSH concentration of 5 mM
Protocol: The uptake of alkylTPP molecules into mitochondria within cells is rapid, equilibrating within 5-10 min (Ross, M. F. et al. Rapid and extensive uptake and activation of hydrophobic triphenylphosphonium cations within cells. Biochem. J. 411, 633-645 (2008)), and the rate limiting step is passage across the plasma membrane with rapid subsequent uptake into mitochondria (Ross, M. F. et al. Rapid and extensive uptake and activation of hydrophobic triphenylphosphonium cations within cells. Biochem. J. 411, 633-645 (2008) and Smith, R. A., Kelso, G. F., James, A. M. & Murphy, M. P. Targeting coenzyme Q derivatives to mitochondria. Meth. Enzymol. 382, 45-67 (2004)). Consequently, once through the plasma membrane, MitoSNAP should remain in the cytosol for a very short time before uptake into mitochondria. The rate of reaction of GSH with SNAP is 5.4 M^−1.s^−1 (Hogg, N. The kinetics of S-transnitrosation-a reversible second-order reaction. Anal. Biochem. 272, 257-62 (1999)). While other pathways of MitoSNAP decay in the cytosol may also contribute, GSH is likely to be the major one and at a physiological GSH concentration of 5 mM the half-life for MitoSNAP in the cytosol should be ˜25 s, giving plenty of time for MitoSNAP uptake into mitochondria. […]

## CC(=O)NC(C(=O)NCCCCC[P+](c1ccccc1)(c1ccccc1)c1ccccc1)C(C)(C)SN=O.CS(=O)(=O)[O-] (stereo not drawn) [MitoSNAP, [5-(2-acetylamino-3-methyl-3-nitrosothio-butyrylamino)-penty1]-triphenylphosphonium methanesulfonate]
Complex I
  effect on succinate respiration: unaffected
  inhibition of NADH respiration: about 35%
[1]; 100 nM during reperfusion
  infarct size: decrease in infarct size
[1]; 100 nM during reperfusion, 25 min ischemia, 1 h reperfusion
  recovery of heart function (rate pressure product): better recovery of heart function
[1]; delivered before the I/R injury
  protection against I/R injury: small degree of protection
[2]
  half-life: ~25 s
